# “Also recorded” adds a separate entry of the source.
# B1: KinA (histidine protein kinase) (Bacillus subtilis subsp. subtilis str. 168) (protein)
# chain: MEQDTQHVKPLQTKTDIHAVLASNGRIIYISANSKLHLGYLQGEMIGSFLKTFLHEEDQFLVESYFYNEHHLMPCTFRFIKKDHTIVWVEAAVEIVTTRAERTEREIILKMKVLEEETGHQSLNCEKHEIEPASPESTTYITDDYERLVENLPSPLCISVKGKIVYVNSAMLSMLGAKSKDAIIGKSSYEFIEEEYHDIVKNRIIRMQKGMEVGMIEQTWKRLDGTPVHLEVKASPTVYKNQQAELLLLIDISSRKKFQTILQKSRERYQLLIQNSIDTIAVIHNGKWVFMNESGISLFEAATYEDLIGKNIYDQLHPCDHEDVKERIQNIAEQKTESEIVKQSWFTFQNRVIYTEMVCIPTTFFGEAAVQVILRDISERKQTEELMLKSEKLSIAGQLAAGIAHEIRNPLTAIKGFLQLMKPTMEGNEHYFDIVFSELSRIELILSELLMLAKPQQNAVKEYLNLKKLIGEVSALLETQANLNGIFIRTSYEKDSIYINGDQNQLKQVFINLIKNAVESMPDGGTVDIIITEDEHSVHVTVKDEGEGIPEKVLNRIGEPFLTTKEKGTGLGLMVTFNIIENHQGVIHVDSHPEKGTAFKISFPKK
# notes: made in house; host or cells: E. coli (printed "E. coil")
# B2: KinA (Bacillus subtilis subsp. subtilis str. 168) (protein)
# chain: B1 chain
# notes: made in house
# Columns and labels:
# KinA [1] = molecular target: T1, KinA (Bacillus subtilis, UniProt P16497); assay: biochemical; type: biochemical
# T1 construct: made in house
# T1 sequence (P16497 1-606): B1 chain
# Method: The reactions were performed in a 25 μl final volume containing 100 mM Tris pH 8.0, 100 mM KCl, 2 mM MgCl2, 0.5 mM dithiothreitol, 10% (v/v) glycerol, 0.1 % (w/v) gelatin, 4% (v/v) ethanol, 200 μM total ATP containing approximately 1.5 μCi [gamma-^32 P]ATP (New England Nuclear, 6000 Ci/mMol, 150 μCi/ml), 300 μM SpoOF protein and 0.04 μM KinA protein (Perego, et al., J. Bacteriol. 171: 6187-6196 (1989)) unless otherwise indicated. Fatty acids were added to varying final concentration from solutions made with 100% ethanol (the 4% ethanol concentration in the reaction mixture reflects these addition, or in the case of controls, the addition of ethanol alone). The reactions were initiated by addition of the ATP and incubated for thirty minutes at room temperature.
# When higher KinA concentrations were used, the time of incubation was adjusted accordingly. The reactions were stopped by adding an equal volume of loading dye (0.25 M Tris pH 6.8, 20% (v/v) glycerol, 1% sodium dodecyl sulfate (w/v), 140 mM β-mercaptoethanol, 0.05% (w/v) bromophenol blue) and aliquots were loaded onto polyacrylamide gels (5% stacking, 15% separating, using the buffer system of Laemmi, Id., 1970).
# The gels were run for approximately 16 hours at 10 mA constant current. The gels were covered with plastic wrap and subjected to autoradiography using Kodak XOmat RP1 film. Quantitation of activity was accomplished by cutting gels slices containing the appropriate phosphoprotein (usually SpoOF~P, see Section E below) and counting the Cerenkov radiation in a Beckman LF7500 scintillation counter (Beckman Instruments, Fullerton, Calif.). Equal-sized slices from blank areas of the gels were also counted and used to adjust for background. Percentage of activity was calculated using the value of the control reaction as 100%.
# To quantify our initial assessment of inhibitory properties, the I0.5 values (at 4×10^-8 M KinA) were determined for each of the fatty acids. […] For example, the percent activity at an indicated oleic acid concentration is the ratio (×100) of the incorporation of ^32 P (from [γ^32 P]ATP) into the SpoOF protein relative to the incorporation in the control reaction containing no inhibitor. Typically, data are gathered from at least two different experiments. The I0.5 value is the concentration--e.g., the oleic acid concentration--corresponding to 50% activity as determined from the relevant graph.
# KinA [2] = molecular target: T1, KinA; assay: Test whether fatty acids serve as substrate for KinA-catalyzed phosphorylation (heptane partition); type: biochemical; conditions: KinA 2 μM, no SpoOF, radioactivity in organic phase
# Method: To determine if fatty acids served as a substrate for KinA-catalyzed phosphorylation, the following method was used. The above reaction conditions were employed except that no SpoOF was present; the KinA was at 2 μM and the reactions incubated for 5 minutes prior to the addition of fatty acids. After this initial incubation, to allow autophosphorylation to occur, 48 μl aliquots were added to tubes containing (a) two μl ethanol; (b) 2 μl of 2% oleic acid; and (c) 2 μl of 2% palmitic acid. The reactions were allowed to incubate 10 minutes after which time 0.5 ml H2 O and 0.5 ml heptane were added to each. After 10 minutes at room temperature, the phases were separated by centrifugation. The aqueous phases were washed with H2 O-saturated heptane and the heptane phases washed with heptane-saturated H2 O. The Cerenkov radiation in each phase and wash was determined.
# Oleic acid was added to a reaction mixture containing KinA~[^32 P], and after a suitable incubation, the mixture was separated into organic and aqueous phases (as described above). Under the conditions used, fatty acid species would partition into the organic phase leaving the KinA~P and unincorporated [γ^32 P]ATP in the aqueous phase. The amount of radioactivity in the organic phase containing oleic acid was negligible and no different from the amount present in the control reactions (data not shown).
# KinA~P = molecular target: T2, KinA~P (Bacillus subtilis, UniProt P16497); assay: Dephosphorylation of preformed KinA~P; type: biochemical; conditions: oleic acid 2.5×10^-4M, no SpoOF
# T2 construct: made in house
# Method: Next, the ability of oleic acid to enhance the dephosphorylation of preformed KinA~P was investigated. Autophosphorylation of in the presence of [γ^32 P]ATP was allowed to proceed for 60 minutes in the absence of SpoOF. At the end of this incubation, the reaction was divided into two aliquots, one receiving oleic acid to a final concentration of 2.5×10^-4M. Samples from each were withdrawn at timed intervals, fractionated on polyacrylamide gels, the KinA bands excised and the incorporated radioactivity determined.
# KinA [3] = molecular target: T1, KinA; assay: KinA autophosphorylation assay at higher KinA concentration and ATP competition series; type: biochemical
# Method: (§1) The above-noted experiments were performed using a KinA concentration of […]. At this concentration, a band corresponding to KinA~P was not visible on the autoradiographs. Therefore, it could not be determined if the inhibition occurred at the KinA autophosphorylation step or at the phosphotransferase reaction between KinA~P and SpoOF. To address this question, assays were performed using a higher KinA concentration (1×10^-6 M). The prevention of stable autophosphorylation of KinA by oleic acid was confirmed. Data was gathered which verified the incorporation of ^32 P from [γ^32 P]ATP into the KinA protein in the presence of SpoOF and differing concentrations of oleic acid (not shown). The assay was performed as disclosed hereinabove, except that the KinA concentration was increased to 1×10^-6 M and the incubation time was shortened to three minutes.
# (§2) To determine the nature of the fatty acid inhibition of autophosphorylation, three series of reactions were performed. In the first series, no oleic acid was present; the second contained 2.5×10^-5 M oleic acid; the third contained 7.0×10^-5 M oleic acid. […] Even at the lowest oleic acid concentration (2.5×10^-5 M) and highest ATP level (2×10^-3 M), the KinA was greater than 95% inhibited.
# [4] = substrate: Nc1ncnc2c1ncn2[C@@H]1O[C@H](COP(=O)(O)OP(=O)(O)OP(=O)(O)O)[C@@H](O)[C@H]1O; assay: Phosphorylation of His-SpoOF immobilized on Ni-resin by KinA (high throughput assay); type: biochemical, Bacillus subtilis; conditions: 1 μM KinA, 22° C., 20 min
# Method: Phosphorylation of immobilized His-SpoOF was carried out using the MultiScreen 96-well filtration plate (0.65 μm, type DVPP) from Millipore (Bedford, Mass.). The removal of liquid from the wells of the filtration plate was done with the vacuum manifold from Millipore. The His-SpoOF resin (25%, v/v) was placed into individual wells of the filtration plate and washed twice with 200 μl buffer A. A total volume of 80 μl of buffer A containing the indicated amounts of KinA, ATP, and [γ-^32 P]ATP was added to the wells.
# The plate was then incubated for the indicated period of time at 22° C. with gentle shaking. The reaction was terminated by removal of the reaction mixture from the wells followed by three washes of the resin with buffer A.
# The resin was then washed three times with buffer A containing 30 mM imidazole with 5 min. incubation/shaking and another three times with buffer A only. […]
# For analysis by scintillation counting, 80 μl of 0.2 N HCl was added to each of the wells and the plate was incubated at 55° C. with gentle shaking for 1 hour. […] To each of the wells of the MicroFluor plate, 150 μl of MicroScint-40 (Packard, Meriden, Conn.) was added and the radioactivity was counted using the TopCount from Packard. […]
# [5] = substrate: Nc1ncnc2c1ncn2[C@@H]1O[C@H](COP(=O)(O)OP(=O)(O)OP(=O)(O)O)[C@@H](O)[C@H]1O; assay: KinA autophosphorylation assay at higher KinA concentration and ATP competition series; type: biochemical, Bacillus subtilis; conditions: other: KinA
# Method: as §1, §2
molecule,measurement,setting,value
CCCCCCCC/C=C\CCCCCCCC(=O)O [cis-9-octadecanoic],inhibitory effect on KinA in vitro (in words),KinA [1],potent inhibitors
same,IC50,"KinA [1]; Table 4, I0.5 at 4×10^-8 M KinA, 32P incorporation into SpoOF, read-out: Fatty Acid Inhibitors of KinA Activity (category by I0.5)",< 70 µM
same,inhibition of KinA phosphorylation of SpoOF (in words),KinA [1]; tested at 0.08% final concentration,essentially complete inhibition
same,substrate for KinA catalyzed phosphorylation,KinA [2],did not serve as a substrate
same,loss of 32P from preformed KinA~P versus reaction without oleic acid,KinA~P,no significant difference
same,inhibition of KinA,"KinA [3]; 2.5×10^-5 M oleic acid, highest ATP level 2×10^-3 M",greater than 95%
same,competition of inhibition with ATP,"KinA [3]; ATP 2×10^-5 to 2×10^-3 M, oleic acid 2.5×10^-5 and 7.0×10^-5 M",ATP is not competitive with oleic acid inhibition
same,phosphotransfer from KinA~P to SpoOF,KinA [3]; KinA 1×10^-6 M,can also inhibit the phosphotransfer from KinA~P to SpoOF
same,formation of KinA~P and SpoOF~P,"KinA [3]; KinA 1×10^-6 M, 3 min, differing oleic acid concentrations",inhibits the formation of KinA~P and SpoOF~P in a concentration-dependent fashion; also recorded: acts to inhibit the autophosphorylation of KinA
B1,Km,[4]; other: SDS-PAGE analysis,72 µM
same,Km,[4]; other: scintillation counting,70 µM
B2,Km,[5],130 µM

# Source: patent US6043045A, “Screening methods for the identification of novel antibiotics” (The Scripps Research Institute, priority 1998, dated 2000)
